# In the supplement of paper PMC10733146:
# Legend:
# Experiment in all cases: viability relative to DMSO control (fraction); higher = less drug effect (more viable cells)
# Conditions in all cases: 48 h
# [1] = test system: primary ALL patient cells (S088)
# How it was run: (§1)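 Using 384-well plates with compounds already plated at five concentrations, one well per concentration, 4 × 10^4 primary mononuclear tumour cells were added per well. Cells were Ficoll-isolated from blood or bone marrow or came from processed lymph node, fresh or cryopreserved. They were kept for 48 h at 37 °C and 5% CO2 in RPMI-1640 supplemented with penicillin/streptomycin, L-glutamine and human serum, and viability was read as CellTiter-Glo luminescence relative to the median of 16 inner DMSO wells.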
# [2] = test system: primary AML patient cells (S002)
# How it was run: as §1
# [3] = test system: primary AML patient cells (S011)
# How it was run: as §1
# [4] = test system: primary AML patient cells (S017)
# How it was run: as §1
# [5] = test system: primary AML patient cells (S019)
# How it was run: as §1
# [6] = test system: primary AML patient cells (S021)
# How it was run: as §1
# [7] = test system: primary AML patient cells (S025)
# How it was run: as §1
# [8] = test system: primary AML patient cells (S060)
# How it was run: as §1
# [9] = test system: primary AML patient cells (S071)
# How it was run: as §1
# [10] = test system: primary AML patient cells (S081)
# How it was run: as §1
# [11] = test system: primary AML patient cells (S085)
# How it was run: as §1
# [12] = test system: primary B-PLL patient cells (S016)
# How it was run: as §1
# [13] = test system: primary BL patient cells (S005)
# How it was run: as §1
# [14] = test system: primary CLL patient cells (S043)
# How it was run: as §1
# [15] = test system: primary DLBCL patient cells (S049)
# How it was run: as §1
# [16] = test system: primary DLBCL patient cells (S076)
# How it was run: as §1
# [17] = test system: primary T-NHL patient cells (S058)
# How it was run: as §1
smiles,measurement,setting,value
N#CC[C@H](C1CCCC1)n1cc(-c2ncnc3[nH]ccc23)cn1 [Ruxolitinib],viability,[1]; 0.024 µM,0.974
same,viability,[1]; 0.12 µM,0.912
same,viability,[1]; 0.6 µM,0.994
same,viability,[1]; 3 µM,0.986
same,viability,[1]; 15 µM,0.94
same,viability,[2]; 0.024 µM,0.982
same,viability,[2]; 0.12 µM,0.788
same,viability,[2]; 0.6 µM,0.851
same,viability,[2]; 3 µM,0.707
same,viability,[2]; 15 µM,0.646
same,viability,[3]; 0.024 µM,1.26
same,viability,[3]; 0.12 µM,0.955
same,viability,[3]; 0.6 µM,1.06
same,viability,[3]; 3 µM,0.919
same,viability,[3]; 15 µM,0.743
same,viability,[4]; 0.024 µM,1.05
same,viability,[4]; 0.12 µM,1.03
same,viability,[4]; 0.6 µM,1.09
same,viability,[4]; 3 µM,1
same,viability,[4]; 15 µM,0.907
same,viability,[5]; 0.024 µM,1.09
same,viability,[5]; 0.12 µM,0.873
same,viability,[5]; 0.6 µM,1.03
same,viability,[5]; 3 µM,0.849
same,viability,[5]; 15 µM,0.716
same,viability,[6]; 0.024 µM,0.919
same,viability,[6]; 0.12 µM,0.801
same,viability,[6]; 0.6 µM,0.844
same,viability,[6]; 3 µM,0.779
same,viability,[6]; 15 µM,0.723
same,viability,[7]; 0.024 µM,0.954
same,viability,[7]; 0.12 µM,0.962
same,viability,[7]; 0.6 µM,1.04
same,viability,[7]; 3 µM,1.02
same,viability,[7]; 15 µM,1.06
same,viability,[8]; 0.024 µM,0.992
same,viability,[8]; 0.12 µM,0.932
same,viability,[8]; 0.6 µM,0.924
same,viability,[8]; 3 µM,0.919
same,viability,[8]; 15 µM,0.896
same,viability,[9]; 0.024 µM,1.01
same,viability,[9]; 0.12 µM,0.988
same,viability,[9]; 0.6 µM,0.956
same,viability,[9]; 3 µM,0.944
same,viability,[9]; 15 µM,0.744
same,viability,[10]; 0.024 µM,1.02
same,viability,[10]; 0.12 µM,0.9
same,viability,[10]; 0.6 µM,0.951
same,viability,[10]; 3 µM,0.854
same,viability,[10]; 15 µM,0.817
same,viability,[11]; 0.024 µM,1.42
same,viability,[11]; 0.12 µM,0.921
same,viability,[11]; 0.6 µM,0.861
same,viability,[11]; 3 µM,0.806
same,viability,[11]; 15 µM,0.651
same,viability,[12]; 0.024 µM,1.16
same,viability,[12]; 0.12 µM,0.98
same,viability,[12]; 0.6 µM,1.08
same,viability,[12]; 3 µM,0.965
same,viability,[12]; 15 µM,0.894
same,viability,[13]; 0.024 µM,1.01
same,viability,[13]; 0.12 µM,1.18
same,viability,[13]; 0.6 µM,0.974
same,viability,[13]; 3 µM,1.15
same,viability,[13]; 15 µM,1.03
same,viability,[14]; 0.024 µM,0.915
same,viability,[14]; 0.12 µM,1.05
same,viability,[14]; 0.6 µM,0.938
same,viability,[14]; 3 µM,1.05
same,viability,[14]; 15 µM,0.966
same,viability,[15]; 0.024 µM,1.03
same,viability,[15]; 0.12 µM,0.91
same,viability,[15]; 0.6 µM,0.994
same,viability,[15]; 3 µM,0.981
same,viability,[15]; 15 µM,1
same,viability,[16]; 0.024 µM,1.05
same,viability,[16]; 0.12 µM,0.823
same,viability,[16]; 0.6 µM,0.82
same,viability,[16]; 3 µM,0.702
same,viability,[16]; 15 µM,0.719
same,viability,[17]; 0.024 µM,0.983
same,viability,[17]; 0.12 µM,0.887
same,viability,[17]; 0.6 µM,0.924
same,viability,[17]; 3 µM,0.904
same,viability,[17]; 15 µM,0.8
